Laboratory results taken from EPA's ToxRefDB 2.

Assays:
[1] = test system: rat; conditions: Subchronic oral toxicity in rodents, sprague dawley, Feed, dose end: 13 week, group: systemic, systemic / clinical chemistry / alanine aminotransferase (alt/sgpt) / alanine aminotransferase (alt/sgpt) + systemic / clinical chemistry / …
[2] = test system: mouse; conditions: Developmental neurotoxicity study; cd1; Oral; Feed; dose end: 63 PND; group: cannot be grouped; reproductive / offspring survival early / dead fetuses / dead fetuses
[3] = test system: mouse; conditions: Combined chronic toxicity/carcinogenicity, b6c3f1, Oral, Feed, dose end: 105 week, group: systemic
[4] = test system: rat; conditions: Prenatal developmental toxicity study, fischer, Oral, Feed, dose end: 20 GD
[5] = test system: rat; conditions: Combined chronic toxicity/carcinogenicity, fischer, Oral, Feed, dose end: 105 week, group: systemic
[6] = test system: rat; conditions: Multigenerational reproductive toxicity study, sprague dawley, Oral, Feed, dose end: 3 generation
[7] = test system: rat; conditions: Subchronic oral toxicity in rodents, fischer, Feed, dose end: 11 week, group: systemic, systemic / in life observation / body weight / body weight
[8] = test system: rat; conditions: Carcinogenicity, fischer, Oral, Feed, dose end: 100 week, group: systemic
[9] = test system: mouse; conditions: Carcinogenicity; b6c3f1; Oral; Feed; dose end: 101 week; group: systemic; systemic / in life observation / body weight / body weight + systemic / pathology microscopic / urinary bladder / inflammation
[10] = test system: rat; conditions: Combined chronic toxicity/carcinogenicity, sprague dawley, Oral, Feed, dose end: 24 month, group: systemic
[11] = test system: dog; conditions: Chronic toxicity, beagle, Oral, Feed, dose end: 52 week, group: systemic
[12] = test system: rat; conditions: Subchronic oral toxicity in rodents, sprague dawley, Feed, dose end: 90 day, group: systemic, systemic / in life observation / body weight / body weight + systemic / in life observation / body weight / body weight gain
[13] = test system: dog; conditions: Subchronic oral toxicity in nonrodent, beagle, Feed, dose end: 13 week, group: systemic, systemic / in life observation / body weight / body weight gain + systemic / in life observation / clinical signs / anemia + systemic / in …
[14] = test system: rat; conditions: Multigenerational reproductive toxicity study, sprague dawley, Oral, Feed, dose end: 2 generation
[15] = test system: rabbit; conditions: Prenatal developmental toxicity study, new zealand white, Oral, Gavage/Intubation, dose end: 28 GD
[16] = test system: mouse; conditions: Carcinogenicity, cd1, Oral, [Not Specified], dose end: 79 week, group: systemic
[17] = test system: rabbit; conditions: Subchronic dermal toxicity, new zealand white, Topical, dose end: 13 week, group: systemic, systemic / in life observation / clinical signs / erythema + systemic / pathology gross / skin / [other] + systemic / pathology microscopic…
[18] = systemic / pathology microscopic / testes / degeneration + systemic / pathology microscopic / liver / carcinoma
[19] = group: developmental, systemic / in life observation / body weight / fetal weight
[20] = group: maternal, systemic / in life observation / body weight / body weight + systemic / in life observation / body weight / body weight gain + systemic / …
[21] = group: maternal, systemic / organ weight / liver / absolute + systemic / organ weight / liver / relative to body weight + systemic / in life observation / …
[22] = systemic / in life observation / body weight / body weight gain
[23] = group: offspring, developmental / developmental landmark / vaginal opening / vaginal opening + systemic / in life observation / body weight / offspring (pup) …
[24] = group: parental, systemic / in life observation / body weight / body weight + systemic / organ weight / kidney / absolute + systemic / organ weight / kidney…
[25] = group: reproductive, reproductive / reproductive performance / fertility / fertility + reproductive / offspring survival early / litter size / litter size
[26] = systemic / in life observation / body weight / body weight + systemic / pathology gross / eye / opacity
[27] = systemic / in life observation / body weight / body weight + systemic / in life observation / food consumption / food consumption + systemic…
[28] = systemic / organ weight / liver / relative to body weight + systemic / pathology microscopic / liver / infiltration cellular
[29] = systemic / clinical chemistry / alanine aminotransferase (alt/sgpt) / alanine aminotransferase (alt/sgpt)
[30] = systemic / hematology / anemia / anemia - nos + systemic / hematology / erythrocyte (rbc) count differential / erythrocyte (rbc) + systemic…
[31] = group: offspring, developmental / developmental landmark / preputial separation / preputial separation + systemic / in life observation / body weight / …
[32] = group: parental, systemic / in life observation / body weight / body weight + systemic / in life observation / body weight / body weight gain + systemic / …
[33] = group: reproductive, reproductive / offspring survival early / dead fetuses / dead fetuses
[34] = group: developmental, developmental / developmental malformation / bone / ossification sites + developmental / developmental malformation / lung / absent + …
[35] = group: maternal, reproductive / reproductive performance / premature delivery / premature delivery + systemic / in life observation / clinical signs / …

Structure (SMILES): CCCCC(CC)COC(=O)c1ccccc1C(=O)OCC(CC)CCCC (centres undefined) [Di(2-ethylhexyl) phthalate]
- LEL [1]: 0.25 mg/kg/day
- LOAEL [1]: > 250 mg/kg/day
- NEL [1]: < 0.25 mg/kg/day
- NOAEL [1]: ≥ 250 mg/kg/day
- LEL [2]: 171 mg/kg/day
- NEL [2]: 56 mg/kg/day
- NEL ([3]; systemic / pathology microscopic / liver / carcinoma + systemic / in life observation / body weight / body weight + systemic / in life …): 450 mg/kg/day
- LOAEL ([3]; systemic / pathology microscopic / testes / degeneration): 900 mg/kg/day
- LEL [3, 18]: 900 mg/kg/day
- NOAEL [3, 18]: 450 mg/kg/day
- LEL [4, 19]: 666 mg/kg/day
- LOAEL [4, 19]: 666 mg/kg/day
- NEL [4, 19]: 357 mg/kg/day
- NOAEL [4, 19]: 357 mg/kg/day
- LOAEL [4, 20]: 666 mg/kg/day
- NOAEL [4, 20]: 357 mg/kg/day
- LEL [4, 21]: 357 mg/kg/day
- NEL [4, 21]: < 357 mg/kg/day
- LEL [5, 22]: 300 mg/kg/day
- NEL [5, 22]: < 300 mg/kg/day
- NOAEL ([5]; systemic / in life observation / body weight / body weight gain + systemic / pathology microscopic / liver / carcinoma + systemic / in life …): 300 mg/kg/day
- LOAEL ([5]; systemic / in life observation / body weight / body weight gain + systemic / pathology microscopic / testes / degeneration): 600 mg/kg/day
- LEL [6, 23]: 391 mg/kg/day
- LOAEL [6, 23]: > 391 mg/kg/day
- NEL [6, 23]: 48 mg/kg/day
- NOAEL [6, 23]: ≥ 391 mg/kg/day
- LOAEL [6, 24]: > 391 mg/kg/day
- NEL [6, 24]: 14 mg/kg/day
- NOAEL [6, 24]: ≥ 391 mg/kg/day
- LEL ([6]; group: parental, systemic / organ weight / liver / relative to body weight + systemic / pathology microscopic / kidney / dilatation + systemic / pathology …): 48 mg/kg/day
- NEL ([6]; group: reproductive, reproductive / reproductive performance / fertility / fertility): 48 mg/kg/day
- LEL [6, 25]: 391 mg/kg/day
- LOAEL [6, 25]: > 391 mg/kg/day
- NOAEL [6, 25]: ≥ 391 mg/kg/day

Structure (SMILES): O=NN(c1ccccc1)c1ccccc1 [N-Nitrosodiphenylamine]
- LEL [7]: 200 mg/kg/day
- LOAEL [7]: 200 mg/kg/day
- LEL [8, 26]: 50 mg/kg/day
- NEL [8, 26]: < 50 mg/kg/day
- LOAEL ([8]; systemic / pathology microscopic / urinary bladder / hyperplasia): 200 mg/kg/day
- NOAEL ([8]; systemic / pathology microscopic / urinary bladder / hyperplasia + systemic / in life observation / body weight / body weight + systemic / …): 50 mg/kg/day
- LEL [9]: 347 mg/kg/day
- LOAEL [9]: 347 mg/kg/day
- NEL [9]: < 347 mg/kg/day
- NOAEL [9]: < 347 mg/kg/day

Structure (SMILES): CN/C(=N\[N+](=O)[O-])NCc1cnc(Cl)s1 [Clothianidin]
- LOAEL [10, 27]: 97.8 mg/kg/day
- NOAEL [10, 27]: 32.5 mg/kg/day
- LEL [10, 28]: 9.7 mg/kg/day
- NEL [10, 28]: < 9.7 mg/kg/day
- LEL [11, 29]: 36.3 mg/kg/day
- NEL [11, 29]: 16.6 mg/kg/day
- LOAEL [11, 30]: 52.9 mg/kg/day
- NOAEL [11, 30]: 40.1 mg/kg/day
- LEL [12]: 202 mg/kg/day
- LOAEL [12]: 202 mg/kg/day
- NOAEL [12]: 27.9 mg/kg/day
- LEL [13]: 40.9 mg/kg/day
- LOAEL [13]: 40.9 mg/kg/day
- NEL [13]: 19.3 mg/kg/day
- NOAEL [13]: 19.3 mg/kg/day
- LEL [14, 31]: 34.3 mg/kg/day
- LOAEL [14, 31]: 34.3 mg/kg/day
- NEL [14, 31]: 10.7 mg/kg/day
- NOAEL [14, 31]: 10.7 mg/kg/day
- LEL [14, 32]: 163 mg/kg/day
- LOAEL [14, 32]: 163 mg/kg/day
- NEL [14, 32]: 31.2 mg/kg/day
- NOAEL [14, 32]: 31.2 mg/kg/day
- LEL [14, 33]: 31.2 mg/kg/day
- LOAEL [14, 33]: 31.2 mg/kg/day
- NEL [14, 33]: 9.8 mg/kg/day
- NOAEL [14, 33]: 9.8 mg/kg/day
- LOAEL ([15]; group: developmental, developmental / developmental malformation / bone / ossification sites + developmental / developmental malformation / lung / absent): 75 mg/kg/day
- LEL [15, 34]: 75 mg/kg/day
- NEL [15, 34]: 25 mg/kg/day
- NOAEL [15, 34]: 25 mg/kg/day
- LEL [15, 35]: 75 mg/kg/day
- LOAEL [15, 35]: 75 mg/kg/day
- NEL [15, 35]: 25 mg/kg/day
- NOAEL [15, 35]: 25 mg/kg/day
- LOAEL ([16]; systemic / in life observation / body weight / body weight + systemic / in life observation / body weight / body weight gain): 216 mg/kg/day
- NOAEL ([16]; systemic / in life observation / body weight / body weight + systemic / in life observation / body weight / body weight gain + systemic / …): 65.1 mg/kg/day
- LEL ([16]; systemic / in life observation / clinical signs / excessive or spontaneous vocalization): 171 mg/kg/day
- NEL ([16]; systemic / in life observation / clinical signs / excessive or spontaneous vocalization + systemic / in life observation / body weight / …): 47.2 mg/kg/day

Structure (SMILES): O=C([O-])c1ccc2ccccc2c1.O=C([O-])c1ccc2ccccc2c1.[Zn+2] [Zinc naphthenate]
- NOAEL [17]: < 100 mg/kg/day
